Tests used:
Format in all cases: functional
[1] = system: HCT-116; assay: Growth inhibition of human HCT116 cells at 10 uM after 48 hrs by sulforhodamine B assay; conditions: HCT-116, 48 h, read-out: GI
[2] = system: SF-295; assay: Growth inhibition of human SF295 cells at 10 uM after 48 hrs by sulforhodamine B assay; conditions: SF-295, 48 h, read-out: GI
[3] = system: IGROV-1; assay: Growth inhibition of human IGROV1 cells at 10 uM after 48 hrs by sulforhodamine B assay; conditions: IGROV-1, 48 h, read-out: GI
[4] = system: UACC-62; assay: Growth inhibition of human UACC62 cells at 10 uM after 48 hrs by sulforhodamine B assay; conditions: UACC-62, 48 h, read-out: GI
[5] = system: CAKI-1; assay: Growth inhibition of human CAKI-1 cells at 10 uM after 48 hrs by sulforhodamine B assay; conditions: CAKI-1, 48 h, read-out: GI
[6] = system: PC-3; assay: Growth inhibition of human PC3 cells at 10 uM after 48 hrs by sulforhodamine B assay; conditions: PC-3, 48 h, read-out: GI
[7] = system: UO-31; assay: Growth inhibition of human UO31 cells at 10 uM after 48 hrs by sulforhodamine B assay; conditions: UO-31, 48 h, read-out: GI
[8] = system: MOLT-4; assay: Growth inhibition of human MOLT4 cells at 10 uM after 48 hrs by sulforhodamine B assay; conditions: MOLT-4, 48 h, read-out: GI
[9] = system: HOP-92; assay: Growth inhibition of human HOP92 cells at 10 uM after 48 hrs by sulforhodamine B assay; conditions: HOP-92, 48 h, read-out: GI

SMILES	inhibition of growth at 10 µM [1] [%]	inhibition of growth at 10 µM [2] [%]	inhibition of growth at 10 µM [3] [%]	inhibition of growth at 10 µM [4] [%]	inhibition of growth at 10 µM [5] [%]	inhibition of growth at 10 µM [6] [%]	inhibition of growth at 10 µM [7] [%]	inhibition of growth at 10 µM [8] [%]	inhibition of growth at 10 µM [9] [%]
CO[C@H]1NC(=O)N(S(=O)(=O)c2ccc3ccccc3c2)[C@@H]1OC (relative stereo)	-4.18	4.43	-25.5	1.65	-7.3	2.1	13.7	–	–
COc1ccc(S(=O)(=O)N2C(=O)N[C@H](OC)[C@H]2OC)cc1 (relative stereo)	-23.4	8.51	-20.7	–	7.51	-2.45	–	-5.62	–
CO[C@H]1NC(=O)N(S(=O)(=O)c2ccc(Cl)cc2)[C@@H]1OC (relative stereo)	-10.3	7.91	-23.9	–	7.49	2.67	22	–	-13.6
COc1ccc(S(=O)(=O)N2C(=O)N[C@H](OC)[C@H]2OC)c(OC)c1 (relative stereo)	–	2.06	-13.9	8.26	21.2	4.15	6.25	–	–
CO[C@H]1NC(=O)N(S(=O)(=O)c2c(C)cc(C)cc2C)[C@@H]1OC (relative stereo)	–	–	-7.61	6.82	15.7	4.26	14.7	–	21.3
CO[C@@H]1[C@@H](OC)N(S(=O)(=O)c2ccccc2)C(=O)N1S(=O)(=O)c1ccccc1 (relative stereo)	-2.02	-12.3	3.06	-6.88	10.4	5.78	15	13.3	29.9
COc1ccc(S(=O)(=O)N2C(=O)N(S(=O)(=O)c3ccc(OC)cc3)[C@H](OC)[C@H]2OC)cc1 (relative stereo)	8.94	6.43	6.17	20.3	36.8	22.2	35.1	15.6	61
COc1ccc(S(=O)(=O)N2C(=O)N(S(=O)(=O)c3ccc(OC)cc3OC)[C@H](OC)[C@H]2OC)c(OC)c1 (relative stereo)	-2.15	4.19	3.77	16	17.1	15.9	23.3	14.2	–
CO[C@@H]1[C@@H](OC)N(S(=O)(=O)c2ccc(Cl)cc2Cl)C(=O)N1S(=O)(=O)c1ccc(Cl)cc1Cl (relative stereo)	11.9	16	4.16	4.25	25	22.5	15.3	14.2	60.2

Source: ChEMBL document CHEMBL1955806, “Design, synthesis, single-crystal and preliminary antitumor activity of novel arenesulfonylimidazolidin-2-ones” (2012)
